Reference: the supplement of paper PMC10331698
± gives the standard deviation of the averaged measurements.

What was measured:
Test in all cases: level (log10 ratio to DMSO vehicle control); higher = higher biomarker level / cell amount than vehicle control
Settings in all cases: in DMSO
[1] = compound: O=S(=O)(O)C(F)(F)C(F)(F)C(F)(F)C(F)(F)C(F)(F)C(F)(F)C(F)(F)C(F)(F)C(F)(F)C(F)(F)F [Sodium perfluorodecanesulfonate]
Protocol: (§1)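 BioMAP Diversity Plus panel of 12 human primary cell co-culture systems (3C, 4H, LPS, SAg, BT, BF4T, BE3C, CASM3C, HDF3CGF, KF3CT, MyoF, Mphg). Compounds were added 1 h before stimulation and left for 24 h (MyoF 48 h; BT 72 h for soluble read-outs or 6 d for IgG). Biomarkers were read by ELISA, cytotoxicity by SRB, PBMC viability and proliferation by Alamar Blue. Each well value was divided by the mean of 8 DMSO control wells on the same plate and log10 transformed; duplicate blinded samples were tested at 4 concentrations.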

[2] = compound: O=C(O)C(F)(F)C(F)(F)C(F)(F)C(F)(F)C(F)(F)C(F)(F)C(F)(F)C(F)(F)C(F)(F)C(F)F [11-H-Perfluoroundecanoic acid]
Protocol: as §1

[3] = compound: FC(F)(F)C(F)(F)CNCC(F)(F)C(F)(F)F [Bis(1H,1H-perfluoropropyl)amine]
Protocol: as §1

[4] = compound: COC(=O)C(F)(F)C(F)(F)OC(F)(C(F)(F)F)C(F)(F)OC(F)=C(F)F [Methyl perfluoro(3-(1-ethenyloxypropan-2-yloxy)propanoate)]
Protocol: as §1

[5] = compound: O=S(=O)(F)C(F)(F)C(F)(F)C(F)(F)C(F)(F)C(F)(F)C(F)(F)C(F)(F)C(F)(F)F [Perfluorooctanesulfonyl fluoride]
Protocol: as §1

[6] = compound: C=C(C)C(=O)OCCC(F)(F)C(F)(F)C(F)(F)C(F)(F)C(F)(F)C(F)(F)F [6:2 Fluorotelomer methacrylate]
Protocol: as §1

[7] = compound: NC(=O)C(F)(F)C(F)(F)C(F)(F)C(F)F
Protocol: as §1

Test System	level (log10) ([1]; 1500 nM)	level (log10) ([1]; 4400 nM)	level (log10) ([1]; 13000 nM)	level (log10) ([1]; 40000 nM)	level (log10) ([2]; 6700 nM)	level (log10) ([2]; 20000 nM)	level (log10) ([3]; 6700 nM)	level (log10) ([3]; 20000 nM)	level (log10) ([3]; 60000 nM)	level (log10) ([4]; 6700 nM)	level (log10) ([4]; 20000 nM)	level (log10) ([5]; 6700 nM)	level (log10) ([5]; 20000 nM)	level (log10) ([5]; 60000 nM)	level (log10) ([6]; 6700 nM)	level (log10) ([6]; 20000 nM)	level (log10) ([6]; 60000 nM)	level (log10) ([7]; 6700 nM)	level (log10) ([7]; 20000 nM)	level (log10) ([7]; 60000 nM)
BF4T:Keratin 8/18	0.02 ± 0.0071	0.005 ± 0.023	-0.0175 ± 0.015	-0.044 ± 0.023	-0.0025 ± 0.011	-0.062 ± 0.0085	-0.0075 ± 0.0064	-0.019 ± 0.013	0.015 ± 0.03	0.029 ± 0.02	0.015 ± 0.042	0.0285 ± 0.033	0.003 ± 0.016	0.0335 ± 0.0092	-0.0305 ± 0.019	-0.0345 ± 0.044	-0.054 ± 0.013	0.004 ± 0.042	0.005 ± 0.011	0.0135 ± 0.026
BF4T:MMP-1	0.009 ± 0.013	-0.0095 ± 0.0078	0.001 ± 0.0014	0.0245 ± 0.005	-0.0115 ± 0.013	0.0005 ± 0.026	-0.009 ± 0.0071	-0.0005 ± 0.00071	0.01 ± 0.011	0.0055 ± 0.019	0.0095 ± 0.0021	-0.0075 ± 0.00071	-0.0115 ± 0.005	0.001 ± 0.0071	-0.0015 ± 0.005	0.015 ± 0.011	0.015 ± 0.013	0.003 ± 0.0085	-0.003 ± 0.0085	0.0075 ± 0.0035
BF4T:MMP-3	-0.0175 ± 0.032	-0.002 ± 0.0099	0.0175 ± 0.0078	0.054 ± 0.0042	0.0035 ± 0.046	0.002 ± 0.028	-0.013 ± 0.0028	-0.0125 ± 0.0092	0.001 ± 0.025	0.0165 ± 0.018	0.102 ± 0.021	-0.0015 ± 0.0021	-0.0095 ± 0.025	0.026 ± 0.047	-0.001 ± 0.013	-0.0215 ± 0.028	0.0055 ± 0.005	0.01 ± 0.033	-0.005 ± 0.047	0.0075 ± 0.047
BF4T:MMP-9	0.0255 ± 0.0078	-0.007 ± 0.045	-0.0285 ± 0.015	-0.058 ± 0.021	-0.042 ± 0.047	-0.154 ± 0.021	-0.013 ± 0.0057	-0.013 ± 0.0042	0.0085 ± 0.036	-0.0175 ± 0.018	0.0125 ± 0.069	0.007 ± 0.02	-0.007 ± 0.0099	0.015 ± 0.0028	-0.0295 ± 0.096	-0.033 ± 0.028	-0.028 ± 0.062	0.013 ± 0.051	-0.006 ± 0.055	-0.001 ± 0.047
BF4T:PAI-I	-0.0015 ± 0.0092	0.0175 ± 0.005	0.0125 ± 0.0035	0.021 ± 0.0071	-0.0455 ± 0.025	-0.146 ± 0.034	-0.008 ± 0.0014	-0.005	0.006 ± 0.016	-0.016 ± 0.0085	-0.0175 ± 0.021	0.004 ± 0.0014	-0.0005 ± 0.0035	0.02 ± 0.0085	-0.0175 ± 0.011	-0.007 ± 0.0042	-0.0075 ± 0.0035	-0.0005 ± 0.019	-0.0095 ± 0.021	0.004 ± 0.0085
BF4T:SRB	0.004 ± 0.0071	-0.0055 ± 0.005	0 ± 0.0057	0.006 ± 0.016	-0.012 ± 0.0014	-0.103 ± 0.0092	-0.004 ± 0.0071	-0.0065 ± 0.0064	0.0005 ± 0.0078	-0.005 ± 0.016	0.0035 ± 0.026	-0.0025 ± 0.0035	-0.002 ± 0.0042	0.0145 ± 0.025	0.002 ± 0.0071	-0.003 ± 0.0071	-0.0035 ± 0.012	-0.0075 ± 0.00071	-0.0125 ± 0.011	-0.0025 ± 0.0078
BF4T:tPA	0.01 ± 0.0071	0.0175 ± 0.059	0.075 ± 0.018	0.068 ± 0.016	-0.131 ± 0.019	-0.133	-0.062 ± 0.035	-0.054 ± 0.023	-0.0335 ± 0.0035	-0.053 ± 0.025	-0.046 ± 0.0028	-0.003 ± 0.027	-0.0155 ± 0.016	-0.008 ± 0.0099	-0.0185 ± 0.016	-0.036 ± 0.038	-0.014 ± 0.047	-0.0005 ± 0.021	-0.0115 ± 0.022	0.0125 ± 0.005
BF4T:uPA	0.0165 ± 0.0035	0.013 ± 0.017	0.0415 ± 0.005	0.06 ± 0.027	-0.0095 ± 0.036	-0.051 ± 0.038	-0.025 ± 0.011	-0.0205 ± 0.013	-0.0165 ± 0.0092	-0.0075 ± 0.0064	0.02 ± 0.0028	0.007 ± 0.0028	0 ± 0.011	0.0095 ± 0.0092	-0.006 ± 0.0057	0.0005 ± 0.026	0.006 ± 0.011	-0.001 ± 0.023	-0.0145 ± 0.015	-0.004 ± 0.021
BT:PBMC Cytotoxicity	-0.025 ± 0.023	-0.005 ± 0.0042	-0.0035 ± 0.026	0.007 ± 0.035	0.0055 ± 0.0035	0.0375 ± 0.0064	0.007 ± 0.013	0.005 ± 0.024	0.0125 ± 0.013	0.0195 ± 0.036	0.049 ± 0.058	-0.001 ± 0.016	-0.01 ± 0.041	-0.005 ± 0.0071	0.0045 ± 0.021	0.018 ± 0.03	0.0285 ± 0.032	-0.001 ± 0.0042	-0.0015 ± 0.0035	0.016
BT:sIL-2	0.0125 ± 0.09	0.014 ± 0.051	0.0265 ± 0.1	0.12 ± 0.064	-0.0265 ± 0.013	-0.008 ± 0.083	-0.011 ± 0.064	0.012 ± 0.064	0.0645 ± 0.1	-0.0335 ± 0.018	-0.059 ± 0.038	-0.038 ± 0.058	-0.001 ± 0.042	0 ± 0.1	0.0005 ± 0.012	-0.0195 ± 0.053	-0.036 ± 0.025	0.002 ± 0.058	-0.056 ± 0.051	0.04 ± 0.0099
BT:sIL-17A	0.0435 ± 0.16	0.057 ± 0.17	0.052 ± 0.3	-0.0495 ± 0.11	0.003 ± 0.0057	-0.0485 ± 0.061	-0.0465 ± 0.067	-0.075 ± 0.13	-0.069 ± 0.25	0.033 ± 0.018	0.061 ± 0.17	-0.047 ± 0.098	-0.176 ± 0.021	-0.112 ± 0.021	-0.058 ± 0.16	0.028 ± 0.099	-0.078 ± 0.04	0.059 ± 0.033	0.025 ± 0.19	-0.0885 ± 0.32
BT:sTNF-alpha	-0.018 ± 0.13	0.005 ± 0.067	-0.0135 ± 0.0064	0.0075 ± 0.21	0.016 ± 0.059	-0.051 ± 0.024	0.046 ± 0.05	0.0265 ± 0.21	0.0915 ± 0.12	-0.0085 ± 0.018	0.0935 ± 0.032	0.0075 ± 0.044	-0.0215 ± 0.0092	-0.041 ± 0.15	-0.0045 ± 0.0035	0.0045 ± 0.012	-0.068 ± 0.058	0.0475 ± 0.19	-0.0695 ± 0.0035	-0.0215 ± 0.047
LPS:CD62E/E-Selectin	-0.019 ± 0.02	-0.045 ± 0.059	-0.0425 ± 0.069	-0.084 ± 0.076	0.0035 ± 0.019	0.0095 ± 0.025	0.0005 ± 0.032	-0.012 ± 0.0057	0.0125 ± 0.00071	-0.0165 ± 0.0035	-0.0085 ± 0.00071	0.008 ± 0.0028	0.0015 ± 0.0064	-0.002 ± 0.011	0.0095 ± 0.018	0.003 ± 0.018	0.0335 ± 0.0064	-0.0115 ± 0.022	-0.023 ± 0.0014	-0.016 ± 0.016
LPS:CD106/VCAM-1	-0.0045 ± 0.029	0.0035 ± 0.0078	-0.0265 ± 0.035	-0.076 ± 0.0028	0.0025 ± 0.019	-0.002 ± 0.02	-0.005 ± 0.0057	0.001 ± 0.021	0.0065 ± 0.0064	-0.066 ± 0.013	-0.0805 ± 0.0064	0.0025 ± 0.011	-0.0125 ± 0.00071	0.007 ± 0.0085	0.0165 ± 0.0092	-0.0025 ± 0.021	0.0055 ± 0.018	-0.0055 ± 0.025	-0.023 ± 0.041	-0.015 ± 0.025
